# According to patent publication US8455475B2 (Gruenenthal GmbH, priority 2009, dated 2013):
# Where a name gives a salt, the structure may show the parent alone.
# What was measured:
# [1] = target: T1, human B1R (bradykinin receptor 1) (Homo sapiens, UniProt P46663); experiment: FLIPR Ca2+ assay (Fluo-4) on CHO K1 cells stably transfected with the human B1R gene (hB1R cells): % inhibition at 10 μM / IC50, agonist Lys-Des-Arg9-bradykinin; assay type: cell-based; details: CHO-K1, human B1R
# T1 construct: expressed in transfected cells; host or cells: CHO K1 cells
# T1 sequence (P46663 1-353): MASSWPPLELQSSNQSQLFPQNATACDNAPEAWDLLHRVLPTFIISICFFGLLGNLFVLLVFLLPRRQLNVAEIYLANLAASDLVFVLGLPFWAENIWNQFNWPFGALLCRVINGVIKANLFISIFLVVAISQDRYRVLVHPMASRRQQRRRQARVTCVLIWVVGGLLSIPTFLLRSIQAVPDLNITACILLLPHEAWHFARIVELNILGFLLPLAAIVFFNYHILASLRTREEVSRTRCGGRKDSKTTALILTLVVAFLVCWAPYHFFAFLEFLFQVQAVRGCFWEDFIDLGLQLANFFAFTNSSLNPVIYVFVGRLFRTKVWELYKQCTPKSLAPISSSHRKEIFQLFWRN
# Outline: (§1)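 Cells were Fluo-4-loaded, then test compound (10 μM, or a concentration series for IC50) was preincubated 10–20 min before agonist challenge at EC80: Lys-Des-Arg9-bradykinin for hB1R, Des-Arg9-bradykinin for rB1R. Peak Ca2+ fluorescence (ex 488/em 540 nm) gave % inhibition versus maximal achievable inhibition.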
# [2] = target: T2, rat B1R (bradykinin receptor 1) (Rattus norvegicus, UniProt P97583); experiment: FLIPR Ca2+ assay (Fluo-4) on CHO K1 cells stably transfected with the B1R gene of the rat (rB1R cells): % inhibition at 10 μM / IC50, agonist Des-Arg9-bradykinin; assay type: cell-based; details: CHO-K1, rat B1R
# T2 construct: expressed in transfected cells; host or cells: CHO K1 cells
# T2 sequence (P97583 1-337): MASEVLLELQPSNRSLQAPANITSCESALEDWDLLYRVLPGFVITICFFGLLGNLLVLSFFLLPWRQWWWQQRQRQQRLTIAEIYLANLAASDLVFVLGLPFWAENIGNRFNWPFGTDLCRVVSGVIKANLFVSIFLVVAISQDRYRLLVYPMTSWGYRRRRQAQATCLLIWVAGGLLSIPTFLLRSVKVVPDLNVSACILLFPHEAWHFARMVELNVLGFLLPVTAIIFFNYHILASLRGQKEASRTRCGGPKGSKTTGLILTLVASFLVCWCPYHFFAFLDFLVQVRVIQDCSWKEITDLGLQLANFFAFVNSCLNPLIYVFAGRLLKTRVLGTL
# Outline: as §1
SMILES,inhibition at 10 µM [1],inhibition at 10 µM [2]
"O=C(N[C@@H]1CCc2ccc(C(=O)N3CCC4(CCN(c5ccncc5)CC4)C3)cc21)c1ccccc1F [Example H-101, 2-Fluoro-N-[(1R)-6-(8-pyridin-4-yl-3,8-diazaspiro[4.5]decane-3-carbonyl)-2,3-dihydro-1H-inden-1-yl]-benzamide]",97%,107%
"O=C(N[C@@H]1CCc2ccc(C(=O)N3CCC4(CC3)CCN(c3ccncc3)CC4)cc21)c1ccccc1F [Example H-102, 2-Fluoro-N-[(1R)-6-(9-pyridin-4-yl-3,9-diazaspiro[5.5]undecane-3-carbonyl)-2,3-dihydro-1H-inden-1-yl]-benzamide]",100%,109%
"COc1cc(C)c(C(=O)N[C@@H]2CCc3ccc(C(=O)N4CCC5(CCN(c6ccncc6)CC5)C4)cc32)cc1C [Example H-103, 4-Methoxy-2,5-dimethyl-N-[(1R)-6-(8-pyridin-4-yl-3,8-diazaspiro[4.5]decane-3-carbonyl)-2,3-dihydro-1H-inden-1-yl]-benzamide]",99%,106%
"Cc1cccc(C)c1C(=O)N[C@@H]1CCc2ccc(C(=O)N3CCC4(CCN(c5ccncc5)CC4)C3)cc21 [Example H-104, 2,6-Dimethyl-N-[(1R)-6-(8-pyridin-4-yl-3,8-diazaspiro[4.5]decane-3-carbonyl)-2,3-dihydro-1H-inden-1-yl]-benzamide]",101%,109%
"O=C(c1ccc2c(c1)[C@H](NS(=O)(=O)c1ccccc1Cl)CC2)N1CCC2(CCN(c3ccncc3)CC2)C1 [Example H-105, 2-Chloro-N-[(1R)-6-(8-pyridin-4-y-3,8-diazaspiro[4.5]decane-3-carbonyl)-2,3-dihydro-1H-inden-1-yl]-benzenesulfonic acid amide]",100%,107%
"O=C(c1ccc2c(c1)[C@H](NS(=O)(=O)c1ccccc1Cl)CCC2)N1CCC2(CCN(c3ccncc3)CC2)C1 [Example H-106, 2-Chloro-N-[(1R)-7-(8-pyridin-4-yl-3,8-diazaspiro[4.5]decane-3-carbonyl)-1,2,3,4-tetrahydro-naphthalen-1-yl]-benzenesulfonic acid amide]",100%,105%
"O=C(N[C@@H]1CCOc2cc(C(F)(F)F)c(C(=O)N3CCC4(CCN(c5ccncc5)CC4)C3)cc21)c1ccccc1Cl [Example H-107, 2-Chloro-N-[(4R)-6-(8-pyridin-4-yl-3,8-diazaspiro[4.5]decane-3-carbonyl)-7-(trifluoromethyl)-3,4-dihydro-2H-chromen-4-yl]-benzamide]",72%,108%
"COc1ccc(C(=O)N[C@@H]2CCc3ccc(C(=O)N4CCC5(CCN(c6ccncc6)CC5)C4)cc32)c(F)c1 [Example H-108, 2-Fluoro-4-methoxy-N-[(1R)-6-(8-pyridin-4-yl-3,8-diazaspiro[4.5]decane-3-carbonyl)-2,3-dihydro-1H-inden-1-yl]-benzamide]",100%,111%
"O=C(N[C@@H]1CCc2ccc(C(=O)N3CCC4(CCN(c5ccncc5)CC4)C3)cc21)c1c(F)cccc1Cl [Example H-109, 2-Chloro-6-fluoro-N-[(1R)-6-(8-pyridin-4-yl-3,8-diazaspiro[4.5]decane-3-carbonyl)-2,3-dihydro-1H-inden-1-yl]-benzamide]",100%,109%
"O=C(N[C@@H]1CCc2ccc(C(=O)N3CCC4(CCN(c5ccncc5)CC4)C3)cc21)c1c(F)cccc1C(F)(F)F [Example H-110, 2-Fluoro-N-[(1R)-6-(8-pyridin-4-yl-3,8-diazaspiro[4.5]decane-3-carbonyl)-2,3-dihydro-1H-inden-1-yl]-6-(trifluoromethyl)-benzamide]",101%,108%
"Cc1cc(N2CCC3(CCN(C(=O)c4ccc5c(c4)[C@H](NC(=O)c4ccccc4Cl)CC5)C3)CC2)cc(C)n1 [Example H-111, 2-Chloro-N-[(1R)-6-[8-(2,6-dimethyl-pyridin-4-yl)-3,8-diazaspiro[4.5]decane-3-carbonyl]-2,3-dihydro-1H-inden-1-yl]-benzamide hydrochloride]",100%,102%
"Cc1cc(N2CCC3(CCN(C(=O)c4ccc5c(c4)[C@H](NC(=O)c4ccccc4Cl)CC5)C3)CC2)ccn1 [Example H-112, 2-Chloro-N-[(1R)-6-[8-(2-methyl-pyridin-4-yl)-3,8-diazaspiro[4.5]decane-3-carbonyl]-2,3-dihydro-1H-inden-1-yl]-benzamide]",100%,102%
"O=C(c1ccc2c(c1)[C@H](NS(=O)(=O)c1cccc(Cl)c1Cl)CC2)N1CCC2(CCN(c3ccncc3)CC2)C1 [Example H-113, 2,3-Dichloro-N-[(1R)-6-(8-pyridin-4-yl-3,8-diazaspiro[4.5]decane-3-carbonyl)-2,3-dihydro-1H-inden-1-yl]-benzenesulfonic acid amide]",99%,92%
"Cc1ncccc1C(=O)N[C@@H]1CCc2ccc(C(=O)N3CCC4(CCN(c5ccncc5)CC4)C3)cc21 [Example H-114, 2-Methyl-N-[(1R)-6-(8-pyridin-4-yl-3,8-diazaspiro[4.5]decane-3-carbonyl)-2,3-dihydro-1H-inden-1-yl]-pyridine-3-carboxylic acid amide]",100%,102%
"O=C(N[C@@H]1CCc2ccc(C(=O)N3CCC4(CCN(c5ccncc5)CC4)C3)cc21)c1cnccc1C(F)(F)F [Example H-115, N-[(1R)-6-(8-Pyridin-4-yl-3,8-diazaspiro[4.5]decane-3-carbonyl)-2,3-dihydro-1H-inden-1-yl]-4-(trifluoromethyl)-pyridine-3-carboxylic acid amide]",100%,101%
"O=C(c1ccc2c(c1)[C@H](NS(=O)(=O)c1ccccc1F)CC2)N1CCC2(CCN(c3ccncc3)CC2)C1 [Example H-116, 2-Fluoro-N-[(1R)-6-(8-pyridin-4-yl-3,8-diazaspiro[4.5]decane-3-carbonyl)-2,3-dihydro-1H-inden-1-yl]-benzenesulfonic acid amide]",100%,101%
"Cc1ccccc1S(=O)(=O)N[C@@H]1CCc2ccc(C(=O)N3CCC4(CCN(c5ccncc5)CC4)C3)cc21 [Example H-117, 2-Methyl-N-[(1R)-6-(8-pyridin-4-yl-3,8-diazaspiro[4.5]decane-3-carbonyl)-2,3-dihydro-1H-inden-1-yl]-benzensulfonic acid amide]",100%,101%
"O=C(c1ccc2c(c1)[C@H](NS(=O)(=O)c1ccccc1C(F)(F)F)CC2)N1CCC2(CCN(c3ccncc3)CC2)C1 [Example H-118, N-[(1R)-6-(8-Pyridin-4-yl-3,8-diazaspiro[4.5]decane-3-carbonyl)-2,3-dihydro-1H-inden-1-yl]-2-(trifluoromethyl)-benzenesulfonic acid amide]",100%,101%
"O=C(c1ccc2c(c1)[C@H](NS(=O)(=O)c1c(Cl)cccc1Cl)CC2)N1CCC2(CCN(c3ccncc3)CC2)C1 [Example H-119, 2,6-Dichloro-N-[(1R)-6-(8-pyridin-4-yl-3,8-diazaspiro[4.5]decane-3-carbonyl)-2,3-dihydro-1H-inden-1-yl]-benzenesulfonic acid amide]",100%,100%
"O=C(N[C@@H]1CCc2ccc(C(=O)N3CCC4(CCC(OCCn5ccnc5)CC4)CC3)cc21)c1ccccc1Cl [Example H-120, 2-Chloro-N-[6-[9-[2-(1H-imidazol-1-yl)-ethoxy]-3-azaspiro[5.5]undecane-3-carbonyl]-2,3-dihydro-1H-inden-1-yl]-benzamide]",65%,104%
"O=C(NC1CCc2ccc(C(=O)N3CCC4(CCC(O)(c5ccncc5)CC4)C3)cc21)c1ccccc1Cl (stereo not shown) [Example H-128, 2-Chloro-N-[6-(8-hydroxy-8-pyridin-4-yl-3-azaspiro[4.5]decane-3-carbonyl)-2,3-dihydro-1H-inden-1-yl]-benzamide]",38%,36%
"O=C(NC1CCc2ccc(C(=O)N3CCC4(CCN(c5cc[n+]([O-])cc5)CC4)C3)cc21)c1ccccc1Cl (stereo not shown) [Example H-129, 2-Chloro-N-[6-[8-(1-oxido-pyridin-1-ium-4-yl)-3,8-diazaspiro[4.5]decane-3-carbonyl]-2,3-dihydro-1H-inden-1-yl]-benzamide]",100%,102%
"O=C(NC1CCc2ccc(C(=O)N3CCC4(CCN(c5ncc(C(F)(F)F)cn5)CC4)C3)cc21)c1ccccc1Cl (stereo not shown) [Example H-130, 2-Chloro-N-[6-[8-[5-(trifluoromethyl)-pyrimidin-2-yl]-3,8-diazaspiro[4.5]decane-3-carobnyl]-2,3-dihydro-1H-inden-1-yl]-benzamide]",94%,99%
